Test results reported in patent EP3033337B1, “SUBSTITUTED IMIDAZOLES AS N-TYPE CALCIUM CHANNEL BLOCKERS” (Janssen Pharmaceutica NV, priority 2013, dated 2015).

How the values were obtained:
human N-type Ca channel [1] = target: T1, human N-type Ca channel (Homo sapiens, UniProt Q00975); assay: Calcium influx assay (FDSS), KCl depolarization, Fluo8 dye; assay type: cell-based; parameters: host or cells: HEK 293; details: HEK 293 cells expressing human N-type Ca channel; 100 mM KCl; read-out: N Type IC50 Data FDSS
How it was run: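 HEK293 cells stably expressing the human N-type Ca channel were loaded with Fluo8 and washed in choline-based buffer (pH 7.2, 2 mM CaCl2, 2 mM KCl). Cells were preincubated with serially diluted compound for 15 min in the dark. Ca influx was then recorded by fluorescence after depolarization with 100 mM KCl.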

Rats = assay: Sciatic nerve ligation (SNL) model of neuropathic pain, L5/L6 spinal nerve ligation, von Frey filaments; assay type: in vivo; details: response at Tmax
Text: Left L5 and L6 spinal nerves are isolated adjacent to the vertebral column and were ligated with 5-0 silk suture distal to the dorsal root ganglion, as described by Kim and Chung (1992). The incision was closed with the help of GLUture topical tissue adhesive. At 14 days post-surgery (one day prior to test compound administration), mechanical allodynia was quantified using eight von Frey filaments, calibrated in the range 0.4-15.1 g (Nielsen et al 2005). Rats were placed into individual plastic containers on top of a suspended wire mesh grid and acclimated to the test chambers for at least 15 min. Filaments were applied perpendicular to the mid-plantar paw surface, with enough force to cause slight buckling, and held in place for 6-8 sec until a response was noted as a sharp paw withdrawal, flinching, licking and/or biting immediately upon removal of the filament (Nielsen et al 2005). […] Test compounds of Formula (I) were administered and a response was measured at Tmax. The maximum possible effect (% MPE) was determined to be 100% if the sensitivity in the ipsilateral paw neared that of the contralateral paw. Values from vehicle-treated animals were considered 0 %. The compound effect was determined based on these values.

human N-type Ca channel [2] = target: T1, human N-type Ca channel; assay: Electrophysiological response, QPatch (depolarization -80 mV to +20 mV); details: concentration range 0.01-1 µM
Experimental: The recombinant cell line described above was used in the measurement of electrophysiological properties with QPatch (Sophion). Cells were maintained in culture as mentioned above. Prior to the experiment, the flasks were moved to 30 °C and incubated for 48-72 hrs. On the day of assaying, cells were detached and harvested. The cell pellet was re-suspended in SMF4HEK (HyClone)/25mM HEPS at 2-5 million/ mL and placed on the QStirrer of the QPatch for 30-60 min prior to the start of the assay. […] Microtiter-Plate/Reference Buffer contained 140 mM TEA-Cl, 10mM BaCl2, 0.8 mM MgCl2, 10 mM HEPES pH ∼7.4 adjusted with TEA-OH/HCl, and ∼300mOsm. Cells were transferred to a QPatch 48 plate and gigaseal was formed. The plate was perfused with intracellular and extracellular buffer. […] In brief, cells were depolarized from resting potential of -80 mV to +20 mV and current was recorded. Data was plotted as percent inhibition vs concentration of the compound and IC50 values were generated using Graphpad Prism non-linear regression analysis.

[3] = test system: CFA-induced mechanical allodynia; assay: Complete Freund's Adjuvant (CFA) induced mechanical allodynia, Von Frey test; assay type: in vivo
Experimental: Animals arrived and were acclimatized for 1-2 weeks in a temperature-controlled room with a 12 h light/dark cycle and allowed free access to standard laboratory chow and water.
CFA (Sigma) was injected intra-plantar (75 µg/150 µL) from a concentration of 1:1 (diluted 1 mg/ mL of CFA in 1 mL ofPBS). CFA-induced mechanical allodynia was quantified by a Von frey test on day 2 (48 h post injection of CFA) and animals were randomized based on iPWT response (Dixon 1980). […] Animals were administered a compound of Formula (I) through appropriate route based on their pharmacokinetic properties. Responses were measured with a Von-Frey filament. The maximum possible effect (% MPE) was determined as 100% if sensitivity in ipsilateral paw neared that of the contralateral paw. Values from the vehicle-treated animals were considered 0%. The compound effect was determined based on these values.

T1 sequence (Q00975 whole entry): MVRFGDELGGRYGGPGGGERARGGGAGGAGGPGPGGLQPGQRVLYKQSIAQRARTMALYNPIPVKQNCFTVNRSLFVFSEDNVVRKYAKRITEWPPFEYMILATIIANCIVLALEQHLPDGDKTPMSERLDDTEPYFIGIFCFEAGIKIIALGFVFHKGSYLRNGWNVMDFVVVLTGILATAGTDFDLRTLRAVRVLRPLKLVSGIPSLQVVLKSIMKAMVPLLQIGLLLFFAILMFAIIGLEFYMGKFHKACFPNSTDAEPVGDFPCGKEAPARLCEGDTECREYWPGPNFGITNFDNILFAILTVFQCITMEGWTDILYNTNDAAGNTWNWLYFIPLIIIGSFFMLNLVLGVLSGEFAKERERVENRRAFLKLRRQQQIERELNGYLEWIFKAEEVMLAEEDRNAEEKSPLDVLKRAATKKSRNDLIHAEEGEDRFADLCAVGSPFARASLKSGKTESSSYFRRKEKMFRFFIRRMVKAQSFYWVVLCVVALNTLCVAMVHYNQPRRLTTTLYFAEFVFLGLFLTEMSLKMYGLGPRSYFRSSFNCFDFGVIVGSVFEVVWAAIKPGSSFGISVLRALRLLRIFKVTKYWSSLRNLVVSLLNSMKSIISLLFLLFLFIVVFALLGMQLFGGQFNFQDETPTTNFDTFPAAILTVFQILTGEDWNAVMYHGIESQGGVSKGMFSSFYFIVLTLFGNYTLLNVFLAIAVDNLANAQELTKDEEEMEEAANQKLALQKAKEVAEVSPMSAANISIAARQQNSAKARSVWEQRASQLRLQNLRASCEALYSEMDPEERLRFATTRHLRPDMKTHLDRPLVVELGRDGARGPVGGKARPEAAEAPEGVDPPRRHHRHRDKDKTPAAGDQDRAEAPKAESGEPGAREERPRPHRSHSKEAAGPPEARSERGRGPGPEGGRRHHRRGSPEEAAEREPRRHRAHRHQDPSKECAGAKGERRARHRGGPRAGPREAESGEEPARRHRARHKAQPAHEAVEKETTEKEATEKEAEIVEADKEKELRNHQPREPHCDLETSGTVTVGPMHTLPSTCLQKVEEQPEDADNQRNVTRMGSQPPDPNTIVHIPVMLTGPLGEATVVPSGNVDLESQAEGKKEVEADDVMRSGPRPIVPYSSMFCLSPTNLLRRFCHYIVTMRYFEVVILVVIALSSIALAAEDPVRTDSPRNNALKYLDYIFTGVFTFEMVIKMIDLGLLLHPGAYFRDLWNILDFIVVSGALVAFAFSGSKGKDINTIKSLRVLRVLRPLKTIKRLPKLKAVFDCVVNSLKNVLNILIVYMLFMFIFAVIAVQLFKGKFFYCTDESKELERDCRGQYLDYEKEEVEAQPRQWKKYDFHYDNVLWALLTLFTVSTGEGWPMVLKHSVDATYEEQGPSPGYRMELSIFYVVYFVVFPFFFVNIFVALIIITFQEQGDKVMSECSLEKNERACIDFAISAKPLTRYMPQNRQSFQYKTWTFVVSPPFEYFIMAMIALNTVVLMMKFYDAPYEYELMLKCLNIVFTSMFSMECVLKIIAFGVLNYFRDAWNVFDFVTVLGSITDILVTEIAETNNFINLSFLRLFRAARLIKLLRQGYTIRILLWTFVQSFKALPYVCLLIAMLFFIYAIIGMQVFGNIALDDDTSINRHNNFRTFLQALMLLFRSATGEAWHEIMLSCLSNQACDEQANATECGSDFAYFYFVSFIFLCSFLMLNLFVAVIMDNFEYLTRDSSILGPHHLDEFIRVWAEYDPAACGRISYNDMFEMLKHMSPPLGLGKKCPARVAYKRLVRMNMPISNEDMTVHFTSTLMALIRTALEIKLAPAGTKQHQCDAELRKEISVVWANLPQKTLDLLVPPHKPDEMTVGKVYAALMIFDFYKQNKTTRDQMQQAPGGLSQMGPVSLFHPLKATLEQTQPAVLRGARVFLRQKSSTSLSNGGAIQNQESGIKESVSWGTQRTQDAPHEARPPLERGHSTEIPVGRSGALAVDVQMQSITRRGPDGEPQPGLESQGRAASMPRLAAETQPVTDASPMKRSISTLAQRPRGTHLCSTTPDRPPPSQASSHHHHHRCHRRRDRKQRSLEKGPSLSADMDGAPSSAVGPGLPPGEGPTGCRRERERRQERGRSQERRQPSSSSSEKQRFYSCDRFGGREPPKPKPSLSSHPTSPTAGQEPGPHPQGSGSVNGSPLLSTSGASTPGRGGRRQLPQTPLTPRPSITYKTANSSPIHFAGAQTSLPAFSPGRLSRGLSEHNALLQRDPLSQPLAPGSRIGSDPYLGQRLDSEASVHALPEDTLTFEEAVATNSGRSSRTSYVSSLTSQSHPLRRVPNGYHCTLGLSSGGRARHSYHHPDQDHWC
T1 sequence (P54284 whole entry partner): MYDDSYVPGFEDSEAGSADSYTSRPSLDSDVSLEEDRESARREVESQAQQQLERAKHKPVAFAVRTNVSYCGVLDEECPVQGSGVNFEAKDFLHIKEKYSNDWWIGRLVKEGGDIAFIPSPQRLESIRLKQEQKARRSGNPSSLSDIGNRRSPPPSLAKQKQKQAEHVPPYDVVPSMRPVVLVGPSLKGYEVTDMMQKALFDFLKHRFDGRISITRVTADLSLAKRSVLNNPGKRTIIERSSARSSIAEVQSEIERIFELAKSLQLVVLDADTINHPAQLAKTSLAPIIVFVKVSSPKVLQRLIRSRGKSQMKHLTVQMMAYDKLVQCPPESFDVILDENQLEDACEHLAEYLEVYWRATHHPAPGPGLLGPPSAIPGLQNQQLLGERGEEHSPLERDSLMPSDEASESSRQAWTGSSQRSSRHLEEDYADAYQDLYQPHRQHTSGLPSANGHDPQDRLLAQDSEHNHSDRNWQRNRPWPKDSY
T1 sequence (P54289 25-956 partner limits assumed): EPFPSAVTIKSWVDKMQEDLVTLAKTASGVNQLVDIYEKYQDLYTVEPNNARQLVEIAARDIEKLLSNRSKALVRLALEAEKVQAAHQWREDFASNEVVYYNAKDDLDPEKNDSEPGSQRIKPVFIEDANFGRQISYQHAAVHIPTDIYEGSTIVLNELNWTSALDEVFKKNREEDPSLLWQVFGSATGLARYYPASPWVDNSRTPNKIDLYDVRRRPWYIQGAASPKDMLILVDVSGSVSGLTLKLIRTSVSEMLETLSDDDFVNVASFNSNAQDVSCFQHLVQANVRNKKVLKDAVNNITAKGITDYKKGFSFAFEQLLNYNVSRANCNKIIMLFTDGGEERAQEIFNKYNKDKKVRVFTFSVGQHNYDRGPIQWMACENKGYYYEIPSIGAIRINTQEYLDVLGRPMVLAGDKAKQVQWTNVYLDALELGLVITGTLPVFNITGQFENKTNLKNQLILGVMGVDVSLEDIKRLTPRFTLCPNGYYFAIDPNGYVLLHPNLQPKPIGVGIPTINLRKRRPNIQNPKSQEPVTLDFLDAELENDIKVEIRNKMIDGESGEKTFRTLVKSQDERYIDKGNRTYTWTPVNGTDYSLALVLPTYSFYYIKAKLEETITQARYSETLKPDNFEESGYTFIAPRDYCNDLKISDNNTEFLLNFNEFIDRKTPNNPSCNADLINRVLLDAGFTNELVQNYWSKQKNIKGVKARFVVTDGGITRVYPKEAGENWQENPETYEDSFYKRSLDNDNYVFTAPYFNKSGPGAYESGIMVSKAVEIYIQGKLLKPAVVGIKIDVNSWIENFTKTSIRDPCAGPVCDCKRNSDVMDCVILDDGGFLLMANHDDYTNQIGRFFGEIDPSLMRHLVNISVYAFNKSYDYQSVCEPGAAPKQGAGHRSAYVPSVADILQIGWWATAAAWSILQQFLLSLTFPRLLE
T1 sequence (P54289 957-1103 partner limits assumed): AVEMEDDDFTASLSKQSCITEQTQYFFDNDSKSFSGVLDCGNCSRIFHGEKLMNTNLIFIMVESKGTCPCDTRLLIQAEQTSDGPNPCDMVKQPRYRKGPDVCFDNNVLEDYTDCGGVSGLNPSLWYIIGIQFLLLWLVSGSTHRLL

- IC50 (human N-type Ca channel [1]): 41 nM
- IC50 (human N-type Ca channel [2]; N Type IC50 Data Qpatch Pulse=1, Pulse=1): 365 nM
- IC50 (human N-type Ca channel [2]; N Type IC50 Data Qpatch Pulse=15, Pulse=15): > 1000 nM
SMILES: COc1ccccc1-c1nc(C2CC(C)(C)OC(C)(C)C2)cn1-c1ccc(C#N)cc1 [Compound 1, 4-[2-(2-Methoxyphenyl)-4-(2,2,6,6-tetramethyltetrahydro-2H-pyran-4-yl)-1H-imidazol-1-yl]benzonitrile]
- SNL(%MPE) (Rats; Dose 12.5 mg/kg): 22.21±7.61%
- SNL(%MPE) (Rats; Dose 25 mg/kg): 40.9±20.29%
- SNL(%MPE) (Rats; Dose 100 mg/kg): 75±13.01%
- CFA (% Reversal) ([3]; Dose 12.5 mg/kg): 19.73±8.25%
- CFA (% Reversal) ([3]; Dose 25 mg/kg): 37.62±7.17%
- CFA (% Reversal) ([3]; Dose 50 mg/kg): 58.8±10.22%
- CFA (% Reversal) ([3]; Dose 100 mg/kg): 75.26±8.96%
